Assay results published in PubChem BioAssay AID2060361 (Molecular Pharmacology Branch, DTP, NCI, 2025).

Test system: 463943-066-T-J2-PDC tumor spheroids with HUVEC/MSC, viability
Experiment: Anticancer human tumor 463943-066-T-J2-PDC patient-derived colon adenocarcinoma cell line growth inhibition [TAK]
Settings: for IC50: curve of first compound; for viability, T/C: stronger effect = lower value
Source text: Combinatorial screen of targeted agents with TAK-243 and ipatasertib in multi-cell type tumor spheroids
A high-throughput screen of multi-cell type tumor spheroids was designed to identify active combinations of targeted small molecules and TAK-243 or ipatasertib. Complex spheroids include a stromal component modeled by human endothelial cells (HUVEC) and fibroblasts modeled by human mesenchymal stem cells (MSCs). The concentration ranges selected for each drug and investigational agent were based upon clinically achievable concentrations if the clinical Cmax of the agent was known.
Compounds. The drugs and investigational agents: TAK-243 (785004), ipatasertib (767898), everolimus (733504), selumetinib (741078), bortezomib (756655), trametinib (758246), ixazomib (758254), vemurafenib (761431), dabrafenib (764134), sapanisertib (764658), alpelisib (765974), and copanlisib (816437), were obtained from the National Cancer Institute (NCI) Developmental Therapeutics Program Chemical Repository. The FDA-approved anticancer drug set is available from the NCI Developmental Therapeutics Program. […] The stock solutions were prepared in dimethyl sulfoxide (DMSO, Sigma-Aldrich, St. Louis, MO, cat. D2650) at 800-fold the tested concentration and stored at -70 degrees C prior to their use. All drugs and investigational agents were tested over a range starting from a high concentration at or near the clinical Cmax and decreasing in half-log increments. If the clinical Cmax for an agent had not been determined, the highest concentration tested was 10 microM.
NCI60 Cell Culture. NCI60 cell lines were obtained from the NCI Developmental Therapeutics Program Tumor Repository. For each lot of cells, the Repository performed Applied Biosystems AmpFLSTR Identifiler testing with PCR amplification to confirm consistency with the published Identifier STR profile for each cell line. Cells were kept in continuous culture for no more than 20 passages. The optimal seeding densities for each of the cell lines at each time point assessed were determined prior to performing the concentration response studies. Briefly, the NCI60 human tumor lines were grown as monolayers in RPMI 1640 medium supplemented with 10% FBS and 2 mmol/L L-glutamine.
An additional 2 lines were from the NCI60 cell line panel including melanomas, MALME-3M and SK-MEL-2. Pooled donor human umbilical vein endothelial cells (HUVEC, Lonza, cat. CC-2519) and human mesenchymal stem cells (hMSC, Lonza, cat. PT-2501) were purchased from Lonza (Walkersville, MD).
PDMR cell lines were grown in complete medium (DC medium): Dulbecco's modified Eagle's medium (DMEM)/F12 supplemented with 5% fetal bovine serum (FBS), 2 mM L-glutamine, 100 U/mL penicillin and 100 µg/ml streptomycin, 0.4 µg/ml hydrocortisone, 10 ng/ml epidermal growth factor (EGF) recombinant human protein, 24 µg/mL adenine, and 0.1 mg/mL primocin. During culture from frozen stock vials, PDMR cells were cultured in the same medium containing 10 µM Y-27632 (see Table 3). The PDCs were cultured in complete DMEM/F12 media without 10 microM Y-27632 dihydrochloride for at least two passages prior to the screen. The pooled donor HUVEC and hMSC were cultured in endothelial cell growth medium 2 (PromoCell, Heidelberg, Germany, cat. C-22011) and mesenchymal stem cell growth medium 2 (PromoCell, cat. C-28009), respectively. For all experiments, HUVEC and hMSC were used at passages </=5.
For the pre-screen, cell seeding densities were determined from a titration spanning the range from 5,000 to 313 cells per well. The mct-spheroids including 60% malignant cells, 25% HUVEC and 15% MSC dispensed as a mixture into U-bottom Ultra-Low Attachment 384-well plates (Corning, NY)
High-throughput Drug Combination Screening.
Prior to their inoculation into 384-well plates, malignant cells, HUVEC, and hMSC were removed from T flasks using TrypLE express (Thermo Fisher Scientific, cat. 12605036) and harvested by centrifugation for 5 min at 233 x g. […]
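Also: spheroids exposed to drugs for seven days.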
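For viability, T/C in this document: 100% = DMSO vehicle control wells.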

## CC(C)CC(NC(=O)C(Cc1ccccc1)NC(=O)c1cnccn1)B(O)O (stereo not given) + CC(C)NCC(C(=O)N1CCN(c2ncnc3c2C(C)CC3O)CC1)c1ccc(Cl)cc1
Second compound 0.3 µM
  IC50: > 10 nM
Second compound 0.949 µM
  IC50: > 10 nM
Second compound 3 µM
  IC50: > 10 nM
Second compound 9.49 µM
  IC50: > 10 nM
Second compound 30 µM
  IC50: > 10 nM
Second compound 0.3 µM, first compound 31.6 pM
  viability, T/C: 98.3%
Second compound 0.3 µM, first compound 0.0001 µM
  viability, T/C: 99.2%
Second compound 0.3 µM, first compound 0.000316 µM
  viability, T/C: 92.3%
Second compound 0.3 µM, first compound 0.001 µM
  viability, T/C: 91.4%
Second compound 0.3 µM, first compound 0.00316 µM
  viability, T/C: 93.1%
Second compound 0.3 µM, first compound 0.01 µM
  viability, T/C: 84.1%
Second compound 0.949 µM, first compound 31.6 pM
  viability, T/C: 89.1%
Second compound 0.949 µM, first compound 0.0001 µM
  viability, T/C: 81.8%
Second compound 0.949 µM, first compound 0.000316 µM
  viability, T/C: 89.4%
Second compound 0.949 µM, first compound 0.001 µM
  viability, T/C: 84.3%
Second compound 0.949 µM, first compound 0.00316 µM
  viability, T/C: 85.2%
Second compound 0.949 µM, first compound 0.01 µM
  viability, T/C: 77.3%
Second compound 3 µM, first compound 31.6 pM
  viability, T/C: 90.5%
Second compound 3 µM, first compound 0.0001 µM
  viability, T/C: 96%
Second compound 3 µM, first compound 0.000316 µM
  viability, T/C: 97.3%
Second compound 3 µM, first compound 0.001 µM
  viability, T/C: 94.4%
Second compound 3 µM, first compound 0.00316 µM
  viability, T/C: 78.5%
Second compound 3 µM, first compound 0.01 µM
  viability, T/C: 81.8%
Second compound 9.49 µM, first compound 31.6 pM
  viability, T/C: 85.4%
Second compound 9.49 µM, first compound 0.0001 µM
  viability, T/C: 95.5%
Second compound 9.49 µM, first compound 0.000316 µM
  viability, T/C: 82.7%
Second compound 9.49 µM, first compound 0.001 µM
  viability, T/C: 88.9%
Second compound 9.49 µM, first compound 0.00316 µM
  viability, T/C: 82.7%
Second compound 9.49 µM, first compound 0.01 µM
  viability, T/C: 77%
Second compound 30 µM, first compound 31.6 pM
  viability, T/C: 88.2%
Second compound 30 µM, first compound 0.0001 µM
  viability, T/C: 85.3%
Second compound 30 µM, first compound 0.000316 µM
  viability, T/C: 91.4%
Second compound 30 µM, first compound 0.001 µM
  viability, T/C: 88.2%
Second compound 30 µM, first compound 0.00316 µM
  viability, T/C: 88.7%
Second compound 30 µM, first compound 0.01 µM
  viability, T/C: 70.2%

## Cn1cnc2c(F)c(Nc3ccc(Br)cc3Cl)c(C(=O)NOCCO)cc21 + CC(C)NCC(C(=O)N1CCN(c2ncnc3c2C(C)CC3O)CC1)c1ccc(Cl)cc1
Second compound 0.3 µM
  IC50: > 3000 nM
Second compound 0.949 µM
  IC50: > 3000 nM
Second compound 3 µM
  IC50: > 3000 nM
Second compound 9.49 µM
  IC50: > 3000 nM
Second compound 30 µM
  IC50: > 3000 nM
Second compound 0.3 µM, first compound 0.00949 µM
  viability, T/C: 102%
Second compound 0.3 µM, first compound 0.03 µM
  viability, T/C: 115%
Second compound 0.3 µM, first compound 0.0949 µM
  viability, T/C: 92.8%
Second compound 0.3 µM, first compound 0.3 µM
  viability, T/C: 78%
Second compound 0.3 µM, first compound 0.949 µM
  viability, T/C: 72.6%
Second compound 0.3 µM, first compound 3 µM
  viability, T/C: 54.6%
Second compound 0.949 µM, first compound 0.00949 µM
  viability, T/C: 101%
Second compound 0.949 µM, first compound 0.03 µM
  viability, T/C: 105%
Second compound 0.949 µM, first compound 0.0949 µM
  viability, T/C: 77.6%
Second compound 0.949 µM, first compound 0.3 µM
  viability, T/C: 69.2%
Second compound 0.949 µM, first compound 0.949 µM
  viability, T/C: 63.9%
Second compound 0.949 µM, first compound 3 µM
  viability, T/C: 62.3%
Second compound 3 µM, first compound 0.00949 µM
  viability, T/C: 90.4%
Second compound 3 µM, first compound 0.03 µM
  viability, T/C: 103%
Second compound 3 µM, first compound 0.0949 µM
  viability, T/C: 85.2%
Second compound 3 µM, first compound 0.3 µM
  viability, T/C: 76.2%
Second compound 3 µM, first compound 0.949 µM
  viability, T/C: 70.3%
Second compound 3 µM, first compound 3 µM
  viability, T/C: 58.4%
Second compound 9.49 µM, first compound 0.00949 µM
  viability, T/C: 102%
Second compound 9.49 µM, first compound 0.03 µM
  viability, T/C: 94.6%
Second compound 9.49 µM, first compound 0.0949 µM
  viability, T/C: 88.5%
Second compound 9.49 µM, first compound 0.3 µM
  viability, T/C: 79.8%
Second compound 9.49 µM, first compound 0.949 µM
  viability, T/C: 70.2%
Second compound 9.49 µM, first compound 3 µM
  viability, T/C: 67.1%
Second compound 30 µM, first compound 0.00949 µM
  viability, T/C: 103%
Second compound 30 µM, first compound 0.03 µM
  viability, T/C: 92.2%
Second compound 30 µM, first compound 0.0949 µM
  viability, T/C: 88.6%
Second compound 30 µM, first compound 0.3 µM
  viability, T/C: 71.7%
Second compound 30 µM, first compound 0.949 µM
  viability, T/C: 71.3%
Second compound 30 µM, first compound 3 µM
  viability, T/C: 60.1%
